Measured values: ChEMBL document CHEMBL1124763, “Nucleoside conjugates. 11. Synthesis and antitumor activity of 1-beta-D-arabinofuranosylcytosine and cytidine conjugates of thioether lipids” (1990)

What was measured:
Mus musculus [1] = assay: Median survival time for antitumor activity against Ip implanted L1210 / ara-C (I) lymphoid leukemia in mice at a dose of 400 mg/kg per day; conditions: route intraperitoneal
Mus musculus [2] = assay: Range of survival days for antitumor activity against Ip implanted L1210 / 0 lymphoid leukemia in mice at a dose of 200 mg/kg per day after treatment 1;range is 24->45; type: functional; conditions: route intraperitoneal
Mus musculus [3] = assay: Increase of life span was determined against Ip implanted L1210 / ara-C (I) lymphoid leukemia in mice at a dose of 400 mg/kg per day; type: functional; conditions: route intraperitoneal
Mus musculus [4] = assay: Increase of life span was determined against Ip implanted L1210 / 0 lymphoid leukemia in mice at a dose of 300 mg/kg per day after treatment 1,15; type: functional; conditions: L1210/0, ip, route intraperitoneal
Mus musculus [5] = assay: Increase of life span was determined against Ip implanted L1210 / ara-C (II) lymphoid leukemia in mice at a dose of 300 mg/kg per day; type: functional; conditions: route intraperitoneal
Mus musculus [6] = assay: Increase of life span was determined against Ip implanted L1210 / 0 lymphoid leukemia in mice at a dose of 400 mg/kg per day after treatment -1; type: functional; conditions: L1210/0, ip, route intraperitoneal
Mus musculus [7] = assay: Survival time treated/survival time tested (T/C) for antitumor activity against Ip implanted L1210 / ara-C (II) lymphoid leukemia in mice at a dose of 300 mg/kg per day; type: functional; conditions: route intraperitoneal
Mus musculus [8] = assay: Range of survival days for antitumor activity against Ip implanted L1210 / 0 lymphoid leukemia in mice at a dose of 400 mg/kg per day after treatment 0;range is 14->45; conditions: route intraperitoneal
Mus musculus [9] = assay: Survival time of treated mice for antitumor activity against Ip implanted L1210 / 0 lymphoid leukemia in mice at a dose of 100 mg/kg per day after treatment 1,5,9;25/8; conditions: route intraperitoneal
Mus musculus [10] = assay: Survival time treated for antitumor activity against Ip implanted L1210 / 0 lymphoid leukemia in mice at a dose of 200 mg/kg per day after treatment 5;15/7; conditions: route intraperitoneal
Mus musculus [11] = assay: Increase of life span was determined against Ip implanted L1210 / 0 lymphoid leukemia in mice at a dose of 200 mg/kg per day after treatment 1; type: functional; conditions: L1210/0, ip, route intraperitoneal
Mus musculus [12] = assay: Range of survival days for antitumor activity against Ip implanted L1210 / 0 lymphoid leukemia in mice at a dose of 400 mg/kg per day after treatment -1;range is 12->45; type: functional; conditions: route intraperitoneal
Mus musculus [13] = assay: Survival time treated for antitumor activity against Ip implanted L1210 / 0 lymphoid leukemia in mice at a dose of 300 mg/kg per day after treatment 1;33/7; conditions: route intraperitoneal
Mus musculus [14] = assay: Survival time treated for antitumor activity against Ip implanted L1210 / 0 lymphoid leukemia in mice at a dose of 200 mg/kg per day after treatment 1,8,15,22;24.5/7; conditions: route intraperitoneal
Mus musculus [15] = assay: Range of survival days for antitumor activity against Ip implanted L1210 / 0 lymphoid leukemia in mice at a dose of 300 mg/kg per day after treatment 1,15;range is 21->45; type: functional; conditions: route intraperitoneal
Mus musculus [16] = assay: Survival time of treated mice for antitumor activity against Ip implanted L1210 / 0 lymphoid leukemia in mice at a dose of 400 mg/kg per day after treatment 5;14.5/7; conditions: route intraperitoneal
Mus musculus [17] = assay: Increase of life span was determined against Ip implanted L1210 / ara-C (I) lymphoid leukemia in mice at a dose of 133 mg/kg per day; type: functional; conditions: route intraperitoneal
Mus musculus [18] = assay: Increase of life span was determined against Ip implanted L1210 / 0 lymphoid leukemia in mice at a dose of 400 mg/kg per day after treatment 2; type: functional; conditions: L1210/0, ip, route intraperitoneal
Mus musculus [19] = assay: Increase of life span was determined against Ip implanted L1210 / 0 lymphoid leukemia in mice at a dose of 200 mg/kg per day after treatment 1,8,15,22; type: functional; conditions: L1210/0, ip, route intraperitoneal
Mus musculus [20] = assay: Increase of life span was determined against Ip implanted L1210 / 0 lymphoid leukemia in mice at a dose of 200 mg/kg per day after treatment 5; type: functional; conditions: L1210/0, ip, route intraperitoneal

Structure (SMILES): CCCCCCCCCCCCCCCCCCSCC(COP(=O)(O)OP(=O)(O)OC[C@H]1O[C@@H](n2ccc(N)nc2=O)[C@@H](O)[C@@H]1O)OC(=O)CCCCCCCCCCCCCCC (mixture of isomers)
- median survival time (Mus musculus [1]): > 45 days
- Range of survival days (Mus musculus [2]): >24
- ILS at 400 mg/kg/day (Mus musculus [3]): > 350%
- ILS at 300 mg/kg/day (Mus musculus [4]): 243%
- ILS at 300 mg/kg/day (Mus musculus [5]): 0%
- ILS at 400 mg/kg/day (Mus musculus [6]): 207%
- median survival time (Mus musculus [7]): 9 days
- Range of survival days (Mus musculus [8]): >14
- survival time (Mus musculus [9]): 25 days
- survival time (Mus musculus [10]): 15 days
- ILS at 200 mg/kg/day (Mus musculus [11]): 357%
- Range of survival days (Mus musculus [12]): >12
- survival time (Mus musculus [13]): 33 days
- survival time (Mus musculus [14]): 24.5 days
- Range of survival days (Mus musculus [15]): >21
- survival time (Mus musculus [16]): 14.5 days
- ILS at 133 mg/kg/day (Mus musculus [17]): > 350%
- ILS at 400 mg/kg/day (Mus musculus [18]): 179%
- ILS at 200 mg/kg/day (Mus musculus [19]): 250%
- ILS at 200 mg/kg/day (Mus musculus [20]): 114%
